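48-hour exposure; five concentrations; linearly interpolated endpoints. TGI: total growth inhibition.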 Where a SMILES comes first, the peptide text is derived from it. The star is where a group is joined. OSu = O=C1CCC(=O)N1O*
Experiments:
Assay in all cases: DTP human tumour cell line panel, 48 h
MOLT-4 leukemia = test system: MOLT-4 leukemia
M14 melanoma = test system: M14 melanoma
MALME-3M melanoma = test system: MALME-3M melanoma
OVCAR-8 ovarian = test system: OVCAR-8 ovarian
LOX IMVI melanoma = test system: LOX IMVI melanoma
RPMI-8226 leukemia = test system: RPMI-8226 leukemia
HOP-62 NSCLC = test system: HOP-62 NSCLC
NCI-H23 lung = test system: NCI-H23 lung
SK-MEL-2 melanoma = test system: SK-MEL-2 melanoma
MCF7 breast = test system: MCF7 breast

## OC12c3ccccc3C1CCCCCC21OCCCO1 (configuration not stated)
MOLT-4 leukemia
  TGI: > 100 µM
M14 melanoma
  TGI: > 100 µM
MALME-3M melanoma
  TGI: > 100 µM
OVCAR-8 ovarian
  TGI: > 100 µM
LOX IMVI melanoma
  TGI: > 100 µM
RPMI-8226 leukemia
  TGI: > 100 µM
HOP-62 NSCLC
  TGI: > 100 µM
NCI-H23 lung
  TGI: > 100 µM
SK-MEL-2 melanoma
  TGI: > 100 µM

## COc1cc(OC)c(OC)cc1/C=C/c1cc[n+](C)c2ccccc12
MOLT-4 leukemia
  TGI: > 100 µM
M14 melanoma
  TGI: > 100 µM
MALME-3M melanoma
  TGI: > 100 µM
OVCAR-8 ovarian
  TGI: > 100 µM
RPMI-8226 leukemia
  TGI: > 100 µM
HOP-62 NSCLC
  TGI: > 100 µM
MCF7 breast
  TGI: > 100 µM
NCI-H23 lung
  TGI: 97.4 µM

## NCCCCC(NC(=O)C(N)Cc1ccc(O)cc1)C(=O)NC(Cc1ccc(O)cc1)C(=O)NC(CCCCN)C(=O)ON1C(=O)CCC1=O (configuration not stated) (H-YKYK-OSu; configuration not given here)
MOLT-4 leukemia
  TGI: > 100 µM
M14 melanoma
  TGI: > 100 µM
MALME-3M melanoma
  TGI: > 100 µM
OVCAR-8 ovarian
  TGI: > 100 µM
RPMI-8226 leukemia
  TGI: > 100 µM
HOP-62 NSCLC
  TGI: > 100 µM
MCF7 breast
  TGI: > 100 µM
NCI-H23 lung
  TGI: > 100 µM
SK-MEL-2 melanoma
  TGI: > 100 µM

## COc1ccc2oc(C(=O)N3CC(CCl)c4ccc(N)cc43)cc2c1 (configuration not stated)
MOLT-4 leukemia
  TGI: 5.44 µM
OVCAR-8 ovarian
  TGI: 1.51 µM
LOX IMVI melanoma
  TGI: 32 µM
HOP-62 NSCLC
  TGI: > 100 µM
MCF7 breast
  TGI: 3.02 µM
NCI-H23 lung
  TGI: 1.1 µM
SK-MEL-2 melanoma
  TGI: 0.72 µM

## C=CCn1c(=N)/c(=C(\N)O)s/c1=C1/SC(=S)N(c2ccc(C)cc2)C1=O
MOLT-4 leukemia
  TGI: > 100 µM
MALME-3M melanoma
  TGI: > 100 µM
OVCAR-8 ovarian
  TGI: > 100 µM
RPMI-8226 leukemia
  TGI: > 100 µM
NCI-H23 lung
  TGI: > 100 µM
SK-MEL-2 melanoma
  TGI: > 100 µM

## COc1cc2c(c(OC)c1OC)-c1ccc(SC)c(=O)cc1C(CC(=O)Oc1cccc(F)c1)C2 (configuration not stated)
MOLT-4 leukemia
  TGI: > 55.2 µM
MALME-3M melanoma
  TGI: > 100 µM
LOX IMVI melanoma
  TGI: 10.8 µM
RPMI-8226 leukemia
  TGI: 6.19 µM
HOP-62 NSCLC
  TGI: > 100 µM
NCI-H23 lung
  TGI: 0.805 µM
SK-MEL-2 melanoma
  TGI: 9.57 µM

## CCn1c(CSc2nc(-c3ccccc3)c(-c3ccccc3)[nH]2)n[nH]c1=S
MOLT-4 leukemia
  TGI: > 100 µM
M14 melanoma
  TGI: > 100 µM
MALME-3M melanoma
  TGI: > 100 µM
OVCAR-8 ovarian
  TGI: > 100 µM
LOX IMVI melanoma
  TGI: > 100 µM
RPMI-8226 leukemia
  TGI: > 100 µM
HOP-62 NSCLC
  TGI: > 100 µM
NCI-H23 lung
  TGI: > 100 µM
SK-MEL-2 melanoma
  TGI: > 100 µM

## COc1ccc2c3c1OC1C(OC)(OC)CC4(C=C2)CN(C)CCC314 (configuration not stated)
MOLT-4 leukemia
  TGI: > 100 µM
MALME-3M melanoma
  TGI: > 100 µM
OVCAR-8 ovarian
  TGI: > 100 µM
LOX IMVI melanoma
  TGI: > 100 µM
RPMI-8226 leukemia
  TGI: > 100 µM
HOP-62 NSCLC
  TGI: > 100 µM
MCF7 breast
  TGI: > 100 µM
NCI-H23 lung
  TGI: > 100 µM

## COc1cc(C2c3cc4c(cc3[C@@H](N(C)c3ccc(N(C)C)cc3)C3COC(=O)C23)OCO4)cc(OC)c1O (some centres not stated)
MOLT-4 leukemia
  TGI: 25.8 µM
M14 melanoma
  TGI: 14.5 µM
OVCAR-8 ovarian
  TGI: > 59.8 µM
LOX IMVI melanoma
  TGI: 16 µM
RPMI-8226 leukemia
  TGI: > 100 µM
HOP-62 NSCLC
  TGI: > 100 µM
NCI-H23 lung
  TGI: 4.92 µM
SK-MEL-2 melanoma
  TGI: 16.9 µM

## COC(=O)C1(O)C(c2ccccc2)NC2(C)CCCC21 (configuration not stated)
MOLT-4 leukemia
  TGI: > 100 µM
M14 melanoma
  TGI: > 100 µM
MALME-3M melanoma
  TGI: > 100 µM
OVCAR-8 ovarian
  TGI: > 100 µM
LOX IMVI melanoma
  TGI: > 100 µM
HOP-62 NSCLC
  TGI: > 100 µM
MCF7 breast
  TGI: > 100 µM
NCI-H23 lung
  TGI: > 100 µM
SK-MEL-2 melanoma
  TGI: > 100 µM

## CNC(=S)/C(C#N)=C(\N)N1CCCC1
MOLT-4 leukemia
  TGI: > 100 µM
MALME-3M melanoma
  TGI: > 100 µM
OVCAR-8 ovarian
  TGI: > 100 µM
RPMI-8226 leukemia
  TGI: > 100 µM
HOP-62 NSCLC
  TGI: > 100 µM
NCI-H23 lung
  TGI: > 100 µM
SK-MEL-2 melanoma
  TGI: > 100 µM

## Cc1ccc(C2C(Cl)C(=O)N2NC(=O)c2ccc(N)cc2)cc1 (configuration not stated)
MOLT-4 leukemia
  TGI: 35.3 µM
M14 melanoma
  TGI: 36.6 µM
MALME-3M melanoma
  TGI: 32.1 µM
OVCAR-8 ovarian
  TGI: 38.8 µM
LOX IMVI melanoma
  TGI: 24.4 µM
RPMI-8226 leukemia
  TGI: 78.9 µM
HOP-62 NSCLC
  TGI: 50.2 µM
NCI-H23 lung
  TGI: 38.3 µM
SK-MEL-2 melanoma
  TGI: 19.8 µM

## O=C1NC(=Nc2ccccc2)C(=Nc2ccccc2)N1c1ccccc1
MOLT-4 leukemia
  TGI: 72.8 µM
MALME-3M melanoma
  TGI: 31.6 µM
OVCAR-8 ovarian
  TGI: 29.4 µM
LOX IMVI melanoma
  TGI: 30.1 µM
RPMI-8226 leukemia
  TGI: 76.8 µM
HOP-62 NSCLC
  TGI: 32.5 µM
NCI-H23 lung
  TGI: 30.8 µM
SK-MEL-2 melanoma
  TGI: 29.3 µM

## Cc1cn(C2OC(CO)C(O)C2F)c(=O)[nH]c1=O (configuration not stated)
MOLT-4 leukemia
  TGI: > 100 µM
M14 melanoma
  TGI: > 100 µM
MALME-3M melanoma
  TGI: > 100 µM
OVCAR-8 ovarian
  TGI: > 100 µM
LOX IMVI melanoma
  TGI: > 100 µM
HOP-62 NSCLC
  TGI: > 100 µM
MCF7 breast
  TGI: > 100 µM
NCI-H23 lung
  TGI: > 100 µM
SK-MEL-2 melanoma
  TGI: > 100 µM

## CC[n+]1c(/C=C/c2ccc(N(CCCl)CCCl)cc2)ccc2cc(I)ccc21
MOLT-4 leukemia
  TGI: 3.03 µM
MALME-3M melanoma
  TGI: 2.93 µM
LOX IMVI melanoma
  TGI: 2.85 µM
RPMI-8226 leukemia
  TGI: 1.72 µM
HOP-62 NSCLC
  TGI: 3.55 µM
NCI-H23 lung
  TGI: 23.5 µM
SK-MEL-2 melanoma
  TGI: 1.39 µM

## CC(=O)NC1C(OCc2ccccc2)OC(CO)C(O)C1OCC(=O)N[C@@H](C)C(=O)N[C@H](CCC(=O)NCCNc1ccc([N+](=O)[O-])c2[nH]c3ccccc3c(=O)c12)C(N)=O (some centres not stated)
M14 melanoma
  TGI: > 100 µM
MALME-3M melanoma
  TGI: > 100 µM
OVCAR-8 ovarian
  TGI: 61.2 µM
LOX IMVI melanoma
  TGI: 99.5 µM
RPMI-8226 leukemia
  TGI: > 100 µM
HOP-62 NSCLC
  TGI: > 100 µM
NCI-H23 lung
  TGI: 90 µM

## OC12CCC3(O)c4ccccc4C3C1c1ccccc12 (configuration not stated)
MOLT-4 leukemia
  TGI: > 100 µM
M14 melanoma
  TGI: > 100 µM
MALME-3M melanoma
  TGI: > 100 µM
OVCAR-8 ovarian
  TGI: > 100 µM
LOX IMVI melanoma
  TGI: > 100 µM
RPMI-8226 leukemia
  TGI: > 100 µM
HOP-62 NSCLC
  TGI: > 100 µM
NCI-H23 lung
  TGI: > 100 µM
SK-MEL-2 melanoma
  TGI: > 100 µM

## C=CCN(CCN(CC=C)S(=O)(=O)c1ccc(C)cc1)S(=O)(=O)c1ccc(C)cc1
MOLT-4 leukemia
  TGI: > 100 µM
M14 melanoma
  TGI: > 100 µM
OVCAR-8 ovarian
  TGI: > 100 µM
LOX IMVI melanoma
  TGI: > 100 µM
MCF7 breast
  TGI: > 100 µM
NCI-H23 lung
  TGI: > 100 µM
